Data as given in patent publication US7834006B2, “Fused polycyclic compounds” (Ajinomoto Co., Inc., priority 2004, dated 2010).

Tested on: adipose cells of rats
Experiment: Evaluation of the sugar transporting capacity (2-[14C(U)]-deoxy-D-glucose incorporation)
Type: cell-based
Settings: insulin 100 nM; rat adipose cells; 2-deoxy-D-glucose incorporation
Description: Preparation of Adipose Cells of Rats:
After the decapitation and venesection of 6 male Wistar rats (body weight: 150 to 200 g), an incision was made in the abdomen of each rat to extract 6 g in total of epididymal adipose tissues. The tissues were finely cut into 2 mm×2 mm pieces in 6 ml of KRH (Krebs-Ringer Hepes, composition: 130 mM of sodium chloride, 4.7 mM of potassium chloride, 1.2 mM of potassium dihydrogenphosphate, 1.2 mM of magnesium sulfate, 1 mM of calcium chloride and 25 mM of Hepes, pH=7.6) containing 5% of BSA (bovine serum albumin). 24 mg of collagenase (type I) was added thereto and the digestion treatment was conducted for about 40 minutes to obtain about 6 ml of isolated adipose cells. The collagenase was removed by the buffer exchange. 2% BSA/KRH solution was added to the residue for the re-suspension to obtain 45 ml of an adipose cell suspension.
Evaluation of the Sugar Transporting Capacity: […]
The sugar transporting capacity was evaluated by measuring the quantity of 2-[^14C(U)]-deoxy-D-glucose incorporated per a unit time. […] The quantity of 2-[^14C(U)]-deoxy-D-glucose contained in the adipose cell layer was determined with a liquid scintillation counter to determine the quantity of the incorporated sugar.

insulin
effect of increasing the sugar-transporting capacity versus insulin-free control group: about 7 times
